One data set has as its system VX2 tumor glycolysis. Nature of the data set: Glycolytic activity (lactic acid formation) of VX2 tumor slices. The format is cell-based, rabbit. As for the experimental part:
Glycolysis was assayed by monitoring the formation of lactic acid following the addition of glucose to a medium containing VX2 tumor slices. Specifically, freshly excised tumors were washed 3 times at 4° C. in 20 ml Chance Hess Medium containing 6.2 mM KCl, 154 mM NaCl, and 11 mM NaPi, pH 7.4. Slices, 1 g each, were then prior incubated for 30 min in a Lab-Line incubator-shaker at 37° C. in 2 ml of the same medium while shaking at 50 rpm. Glucose was then added to give a final concentration of 6 mM, after which the incubation/shaking process was continued with 0.2 ml samples being removed every 30 min for up to 2 h. These samples were subjected to centrifugation at 14,000 rpm in an Eppendorf Centrifuge (Model 5415C). Then, aliquots of the supernatant, 0.01 ml, were removed from each sample, diluted with 0.03 ml of water and subjected to lactic acid determination using the kit supplied by Sigma. The latter contains, in addition to lactic dehydrogenase and NAD+, hydrazine, and glycine buffer, pH 9.2. The mixture was incubated for 30 min at 25° C. after which the absorbance due to formation of NADH was determined at 340 nm using a Gilford Model 260 spectrophotometer. To assess the elevation of the glycolytic activity of the VX2 tumor over that of liver tissue, parallel studies were always carried out in an identical manner with 1 g liver slices derived from the host liver. Finally, in those cases where agents were tested for their capacity to inhibit glycolysis, these were introduced into the system at the prior incubation step with all subsequent steps being run in parallel with those described above for the VX2 tumor or liver alone.
The screen included the following 9 compounds: 2-deoxyglucose (2DOG), 2-fluoro-2-deoxyglucose, 6-fluoro-6-deoxyglucose, 3-O-methyl glucose, 5-thio-D-glucose-6-phosphate, L-glucose, D-xylose, D-lyxose, and 3-bromopyruvic acid (3BrPA). The screen was conducted by incubating VX2 tumor slices in a medium containing 6 mM glucose with 6 mM of each of these agents at 37° C. for 5 h. The use of 6 mM glucose in the medium was used to mimic the maximal amount of glucose that might be in the blood in a real in vivo situation.
To compare the inhibitory effects of 2DOG and 3BrPA on the glycolytic capacity of the isolated liver implanted VX2 tumor, various concentrations of 2DOG and 3BrPA were prior incubated for 30 min at 37° C. with 1 g VX2 tumor slices and glycolysis was monitored.

A further data set concerns AS-30D hepatoma cells. Nature of the data set: Killing of AS-30D hepatoma cells (trypan blue). The format is cell-based, rat. Particulars: 5 mM, 12 h. As for the experimental part:
AS-30D hepatoma cells grown in the peritoneal cavity of Sprague Dawley female rats (see Materials) were adapted to grow in tissue culture in Dulbecco's modified Eagle's medium containing 10% fetal bovine serum. Cells were maintained at 37° C. in a humidified atmosphere containing 5% CO2, and counted in a Neubauer chamber after trypan blue dye addition (cell/dye volume=1/1) by visualization under a Nikon inverted microscope.
The studies described above using the VX2 tumor model for liver cancer predict that 2DOG and 3BrPA may have the capacity to kill hepatoma cells expressing the high glycolytic/high hexokinase phenotype. […] Cell killing was assessed in these experiments by counting those cells in which trypan blue had entered.

In a further data set the test system is "metastatic" lung tumors. Description: Systemic delivery via marginal ear vein, metastatic lung nodules. The format is in vivo, rabbit. As for the experimental part: FIG. 4 depicts the effect of systemic delivery of 3-BrPA on animals harboring the liver implanted VX2 tumor. FIG. 4A depicts histological sections of 9 different tissues isolated 4 days after injecting 3-BrPA (25 ml 0.5 mM) into a marginal ear vein. No damage to these tissues is evident. (Magnification=120×). FIG. 4B depicts a section from a liver implanted VX2 tumor isolated from a control animal not receiving 3-BrPA. […] Cells in both appear completely viable. (Magnification 120×) FIG. 4D depicts a section of lung tissue isolated from an animal in which the liver harbored a VX2 tumor after 14 days of growth. […] (Animals evaluated=4).
Finally, it was important to examine the effect of 3-BrPA when delivered systemically (i.e., via the general circulation) on both animal toxicity and its capacity to damage liver implanted tumors.

Another data set relates to VX2 rabbit liver tumors. Description: Intraarterial dose and infusion modality optimisation in VX2 liver cancer. The format is in vivo. As for the experimental part:
In a therapeutic dose study, 25 ml of 2.5 and 5 mM 3-BrPA were injected as a single intraarterial bolus over two minutes. Although these doses (2.5 and 5 mM) were 0.5 and 1 log higher than the 0.5 mM dose previously investigated, these doses were well within the IV therapeutic dose established in rats and rabbits.
Since patients with HCC also suffer from underlying liver disease such as cirrhosis and hepatitis, an important translational consideration for therapy is the absolute necessity to protect and preserve healthy liver parenchyma. To lessen the degree of liver toxicity, different temporal modalities of intraarterial injection were tested. One possibility was that such a large volume, delivered within the short time of 2 minutes may have added physical and chemical toxic effects on the liver. Thus, a 1-hour continuous infusion and a serial infusion of 2 boluses administered an hour apart were compared against the original single bolus dose. The volume of 25 mL and the concentration of 2.5 mM 3-bromopyruvate were kept constant. […] In each of these experiments, rabbits were sacrificed 48 hours after treatment and representative sections obtained of tumor and normal tissues (7 slides/sample). The samples were subjected to histopathological analysis to determine percentage tumor cell death and damage to the surrounding normal liver tissue. This was then confirmed with the TUNEL assay (FIG. 7) and Ki-67 immunohistochemistry. […] The prolonged slow infusion eliminated most, if not all, of the unwanted damage to the normal liver enabling the use of a much higher dose of 3-bromopyruvate to ensure complete destruction of the tumor.
Having determined that prolonged intraarterial infusion of 3-bromopyruvate was the optimal method of administration, a dose-response analysis was conducted. In part, this dose-response analysis was prompted by the persistent toxicity to healthy liver encountered at 2.5 mM. The objective was to optimize the 1-hour infusion in order to achieve complete tumor eradication without any toxicity to the normal liver parenchyma. Rabbits were intraarterially infused over 1-hour with doses ranging between 0.5 and 2.5 mM in 0.25 mM increments. The rabbits were fasted 24 hours prior to treatment and euthanized 48 hours after treatment. […] This total destruction was identified by histopathology (H&E) and confirmed by the TUNEL assay (FIG. 7). […] One possible explanation for this finding may be that 3-bromopyruvate at higher doses may have other cellular and chemical functions that are much more toxic to the normal liver parenchyma therein impeding the delivery of 3-bromopyruvate exclusively to the tumor. Thus, the healthy liver's ability to metabolize 3-bromopyruvate was optimal at the concentration of 1.75 mM.
To further explore use of the continuous infusion method of delivery, the effect of a 2-hour continuous infusion of 50 mL 1.75 mM 3-BrPA was tested.

The mark [1] stands for this setting: 25 ml 5 mM, single IA bolus over two minutes.

The structures appear in SMILES notation.

The source of these data is patent US20100203110A1, “Therapeutics for Cancer Using 3-Bromopyruvate and Other Selective Inhibitors of ATP Production” (The Johns Hopkins University, priority 2006, published 2010).

Turning to `O=C(O)C(=O)CBr` [3-bromopyruvate], the “inhibition of VX2 tumor glycolysis (screen)” value with VX2 tumor glycolysis (6 mM agent, 6 mM glucose, VX2 tumor slices, 37° C., 5 h) was “almost completely inhibited”. In addition, the “concentration for maximal / complete inhibition of glycolysis” value in the data set with VX2 tumor glycolysis (VX2 tumor slices, 2DOG maximal (70%), 3BrPA complete) is reported as “about 15 mM”. Besides, in the data set with VX2 tumor glycolysis (prior incubated 30 min at 37° C. with 1 g VX2 tumor slices, read-out: half maximal inhibition of glycolysis), the IC50 worked out at 2400 µM. In the data set with AS-30D hepatoma cells, the cell killing entry was “all cells”. The “metastatic lung tumors with a diameter greater than 1 mm” value in the data set on "metastatic" lung tumors (25 ml 0.5 mM, 4 days) was “almost complete disappearance”. In addition, in the data set with "metastatic" lung tumors (of >27 tumors counted, untreated 5), the “number of metastatic lung tumors greater than 1 mm in diameter” value is listed as “none”. For the same molecule, in the data set with VX2 rabbit liver tumors (1-hour intraarterial infusion of 25 mL of 1.75 mM), the major organ toxicity result was “without any evidence of major organ toxicity”. In addition, the “tumor kill and liver toxicity versus 1-hour infusion” value with VX2 rabbit liver tumors (2-hour continuous infusion of 50 mL 1.75 mM) is given as “no significant difference”. Besides, the “damage to the normal liver” value in the data set with VX2 rabbit liver tumors (25 mL 1.75 mM, 1-hour IA infusion) is recorded as “without any damage”. The tumor cell destruction with VX2 rabbit liver tumors (25 mL 1.75 mM, 1-hour IA infusion, 48 hours, H&E and TUNEL) was 100%. The “liver toxicity versus single bolus and 2 serial boluses” value in the data set on VX2 rabbit liver tumors (25 mL 2.5 mM, 1-hour continuous IA infusion, 48 hours) was “considerably less”. Moreover, in the data set with VX2 rabbit liver tumors (25 ml 2.5 mM, single IA bolus), the surrounding healthy liver entry is “large areas of necrosis and fatty changes”; the survival after treatment result is listed as “barely able to survive for more than 48 hours”. The tumor destruction entry in the data set on VX2 rabbit liver tumors (25 ml 2.5 mM, single IA bolus over two minutes) was “complete tumor destruction”. Besides, in the data set on VX2 rabbit liver tumors (25 ml 5 mM, single IA bolus), the mortality entry is given as “death of all the rabbits” and the “other major organs, histopathology at necropsy” value is recorded as “completely uneffected”. Besides, in the data set on VX2 rabbit liver tumors (setting [1]), the surrounding healthy liver result was “widespread necrosis” and the tumor destruction entry is “completely destroyed the tumor”. The “toxicity to the healthy liver tissue” value in the data set on VX2 rabbit liver tumors (doses higher than 1.75 mM, 1-hour IA infusion) is reported as “increased toxicity”.
